Data reported in patent publication US9932300B2, “N,N′-diarylurea compounds and N,N′-diarylthiourea compounds as inhibitors of translation initiation” (President and Fellows of Harvard College, priority 2009, dated 2018).

Tested on: eIF2-GTP-Met-tRNAi ternary complex
Test: Ternary complex assay (dual luciferase, firefly/renilla ratio) in stable KLN-tTA/pBISA-DL(ATF-4) cells; HTS and hit confirmation
Type: cell-based, mouse
Design: Activity 10 uM / Activity 2.5 uM / Activity 5 uM: unit not given here
Settings: confirmed hits of the screen (Table 5); for Activity 2.5 uM: compound at 2.5 uM; for Activity 10 uM: compound at 10 uM; for Activity 5 uM: compound at 5 uM

Row | Compound | Activity 2.5 uM | Activity 10 uM | Activity 5 uM
1 | CC(C)(C)CC(C)(C)c1ccc(OCCOc2ccc(C(=O)Nc3ccc([N+](=O)[O-])cc3)cc2)cc1 [Compound 151119] | 0.72 | 6.62 | –
2 | CCCCCC[N+](CCCCCC)(CCCCCC)CCCCCC.O=C([O-])c1ccccc1 [Compound 152111] | – | 10.391 | 10.85
3 | CCCCCCCCCCCCCCC[N+](C)(C)C.[Cl-] [Compound 155015] | 2.19 | 3.73 | –
4 | CN(C)c1ccc(C(C[N+](=O)[O-])(c2ccc(N(C)C)cc2)c2ccc(N(C)C)cc2)cc1 [Compound 156572] | – | 7.9345 | 7.884
5 | O=C(Nc1ccccc1O)/C(Cl)=C/Cl [Compound 157236] | 0.75 | 3.4 | –
6 | CCOC(=O)c1[nH]c(-c2ccc(OC)cc2)c(C(=O)OCC)c1-c1ccccc1 [Compound 157306] | 1.77 | 3.94 | –
7 | c1ccc2c(c1)O[As](O[As]1Oc3ccccc3O1)O2 [Compound 157382] | 0.68 | 9.04 | –
8 | Cc1cc(C)c(C(=O)Oc2ccc3ccccc3c2)c(C)c1 [Compound 157507] | 2.07 | 3.33 | –
9 | NNc1nc2ccc([N+](=O)[O-])cc2s1 [Compound 158091] | 1.66 | 4.83 | –
10 | O=C(Nc1ccc2ccccc2c1)c1ccc(Cl)cc1Cl [Compound 158959] | 3.2 | 4.01 | –
11 | c1ccc2ncc(-c3ccc4ccccc4n3)cc2c1 [Compound 159209] | – | 8.5 | 4.3
12 | CC1=C(Br)C(=O)C(c2c(C)cc(C)c(Br)c2C)=C(Br)C1=O [Compound 159569] | – | 5.804 | 3.21
13 | CC(=O)Nc1cccc(/C=C/C=C/c2ccc([N+](=O)[O-])cc2)c1 [Compound 161089] | 1.67 | 3.53 | –
14 | CCCN(/C=C/C=C/C=[N+](CCC)CCC)CCC.[O-][Cl+3]([O-])([O-])[O-] [Compound 161504] | – | 5.3 | 2.6
15 | C=C1N(c2cc3ccccc3o2)C(=O)OC12CCCCC2 [Compound 162375] | 1.7 | 3.07 | –
16 | Cc1ccc2nc(-c3ccccc3N)[nH]c2c1 [Compound 163454] | – | 3.5 | 2.2
17 | Cl.c1ccc2c(c1)Cn1c-2nc2ccccc21 [Compound 163482] | 1.588 | 3.207 | –
18 | O=C1c2ccccc2-c2nc3cc4ccccc4cc3nc21 [Compound 163547] | 3.27 | 4.38 | –
19 | [Hg+][c]1ccccc1.[O-]B(O)O [Compound 163948] | 5.67 | – | –
20 | CCc1ccc(NC(=O)Nc2cccc(Cl)c2)cc1 [Compound 164212] | 2.04 | 4.07 | –
21 | Cc1cccnc1.Cc1cccnc1.Cc1cccnc1.Cc1cccnc1.[Cl-].[Cl][Rh-][Cl] [Compound 165688] | – | 14.6965 | 17.91
22 | Clc1ccc(Cl)c(NNc2cc(Cl)ccc2Cl)c1 [Compound 165765] | 1.34 | 4.44 | –
23 | C(=C(\C[P+](c1ccccc1)(c1ccccc1)c1ccccc1)c1ccccc1)/c1ccccc1 [Compound 167334] | – | 12.373 | 11.387
24 | Oc1ccc2ccccc2c1/C=N/Nc1ccc2ccccc2n1 [Compound 168465] | – | 6 | 2.2
25 | N#Cc1c(F)c(F)c(Oc2c(F)c(F)c(F)c(F)c2F)c(F)c1Oc1c(F)c(F)c(F)c(F)c1F [Compound 168745] | 0.39 | 36.37 | –
26 | NNC(=S)N/N=C/c1ccc([N+](=O)[O-])s1 [Compound 170334] | 0.98 | 4.45 | –
27 | N#CC(C#N)=C/C=C/C=C/c1c(Cl)cccc1Cl [Compound 170444] | 0.66 | 12.56 | –
28 | CC(C)c1ccc(N=Nc2ccc(N(C)C)cc2)cc1 [Compound 170582] | 3.72 | 4.44 | –

Row | Compound | Activity 2.5 uM | Activity 10 uM | Activity 5 uM
29 | CN(C)c1ccc(N=Nc2ccc(Cl)c(Cl)c2)cc1 [Compound 170589] | 3.81 | 6.57 | –
30 | CN(C)c1ccc(N=Nc2ccncc2)cc1 [Compound 170600] | 2.21 | 3.46 | –
31 | c1ccc(N=Nc2n[nH]c3ccccc23)cc1 [Compound 170633] | 5.12 | 8.99 | –
32 | Cc1cnccc1N=Nc1ccc(N(C)C)cc1 [Compound 170639] | 3.93 | 5.38 | –
33 | Nc1cccc2scnc12 [Compound 170680] | – | 6.8 | 2.7
34 | Oc1cccc(C2=NNC(c3cccc(O)c3)=NN2)c1 [Compound 171129] | 5.1 | 7.98 | –
35 | Oc1ccc(-c2nnc(-c3ccccc3)nn2)cc1 [Compound 171134] | 2.89 | 3.68 | –
36 | COC1/C=C/OC2(C)Oc3c(C)c(O)c4c(O)c(c(C=NN5CCCCCCCC5)c(O)c4c3C2=O)NC(=O)/C(C)=C/C=C/C(C)C(O)C(C)C(O)C(C)C(OC(C)=O)C1C (stereo not drawn) [Compound 172656] | – | 3.9 | 1.6
37 | O=C(Nc1cccc(Cl)c1)NC1CCC(CC2CCCCC2)CC1.O=C(Nc1cccc(Cl)c1)NC1CCC(CC2CCCCC2)CC1 (stereo not drawn) [Compound 172879] | 1.11 | 3.6 | –
38 | CC(C)(C)C1CCC(NC(=O)C(Cl)Cl)CC1.CC(C)(C)C1CCC(NC(=O)C(Cl)Cl)CC1 (stereo not drawn) [Compound 173000] | 0.61 | 3.68 | –
39 | CO[C@H]1/C=C/O[C@@]2(C)Oc3c(C)c(O)c4c(O)c(c(/C=N/N5CCN(Cc6cccc(C(F)(F)F)c6)CC5)c(O)c4c3C2=O)NC(=O)/C(C)=C\C=C\[C@H](C)[C@H](O)[C@@H](C)[C@@H](O)[C@@H](C)[C@H](OC(C)=O)[C@@H]1C [Compound 173710] | 0.83 | 16.35 | –
40 | Cc1ccc(-c2nc(C#N)c(C#N)nc2-c2ccc(C)cc2)cc1 [Compound 174794] | – | 33.869 | 24.857
41 | Oc1ccc(-c2nnc(-c3ccc(O)cc3)nn2)cc1 [Compound 174877] | 3.04 | 3.29 | –
42 | [CH3][Hg][O]C(C)=O [Compound 176145] | 3.81 | – | –
43 | CS(=O)(=O)c1ccc(/C=C2\C=Cc3ccccc32)cc1 [Compound 176657] | 1.67 | 4.64 | –
44 | FC(F)(F)c1cccc(-c2nc3nc(Cl)c(Cl)nc3[nH]2)c1 [Compound 177407] | – | 21.876 | 16.53
45 | CCC[CH2][Sn]([CH2]CCC)([CH2]CCC)[n]1ccnc1 [Compound 179739] | 0.98 | 3.62 | –
46 | CCCCC[CH2][Sn]([CH2]CCCCC)([CH2]CCCCC)[NH]S(=O)(=O)c1ccc(C)cc1 [Compound 179762] | 0.72 | 18.35 | –
47 | Clc1nn2nnnc2c2ccccc12 [Compound 179944] | 0.54 | 6.1 | –
48 | Cc1cc(C)nc(NC(=S)N/N=C/c2ccccn2)n1 [Compound 185066] | – | 20.339 | 44.91
49 | N#Cc1nc2c3ccccc3c(N=NC(=N)N[N+](=O)[O-])c-2[nH]c1C#N [Compound 186256] | – | 3.71 | 3.212
50 | N#Cc1nc2c3ccccc3c(N=NC(N)=S)c-2[nH]c1C#N [Compound 186257] | – | 59.966 | 49.982
51 | CC(/C=N/O)=N\O.CC(/C=N/O)=N\O.[Pd] [Compound 186948] | – | 4.4425 | 4.507
52 | COc1ccc(NC(=O)Nc2ccccc2Cl)c(Cl)c1 [Compound 191346] | – | 4.4055 | 3.018
53 | O=C(/C=C/c1ccccc1)Nc1ccc(Cl)c(Cl)c1 [Compound 191395] | – | 7.0185 | 3.609
54 | CC12CC3CC(C)(C1)CC(SCCN=C(N)CCl)(C3)C2.Cl [Compound 193484] | 1.24 | 22.72 | –
55 | N#Cc1nc2c(nc1C#N)-c1ccccc1/C2=C1/C(=O)Cc2ccccc21 [Compound 193713] | 0.55 | 24.26 | –
